Here are results for two compounds from paper PMC6587507, “Comparison of the metabolism of 10 chemicals in human and pig skin explants” (Journal of Applied Toxicology, 2018).

Molecules are shown by their SMILES.

The test system of series [1] is pig ear skin explants. Put plainly: Cutaneous distribution and mass balance of radioactivity in pig skin explants. As to conditions: pig skin; for % Radioactivity in culture media after 24 h / Mass balance (% of applied dose at end of incubation): 2.4 nmol/cm^2; for Mass balance (% of applied dose at end of incubation): 48 h; for Medium radioactivity / Skin radioactivity / Skin surface radioactivity: end of incubation (48 h), mean ± SD. On the procedure:
(§1) Human abdominal skin was obtained (with consent for research from a commercial supplier [L’Union Clinic, Rangueil hospital and Icelltis, Toulouse, France] with certified ethical procedures) from six male and 34 female healthy donors, 41 ± 11 years of age, undergoing cosmetic surgery. Abdominal skin was kept at 4°C during transports and placed in culture within 3 hours of surgery. Pig ear skin was a waste product of the meat industry (without hot steam treatment) from domestic pigs (female Pietrain breed, 6 months old, 80‐100 kg) obtained from a local slaughterhouse (Montauban, France). Ears were taken from the animals within 5 minutes of slaughter and were kept at 4°C during transport to the laboratory, which lasted a maximum of 2 hours. Pig skin samples were dried and then gently shaved.
(§2) The experiment and the preparation of the culture medium were performed under sterile conditions. Human and pig skin was cut with a dermatome to a thickness of 450 ± 50 μm. Skin punches were seeded dermal side down in polycarbonate Transwell® inserts from Corning Life Sciences (Avon, France; 4.16 cm^2 application area with an 8 μm pore size filter). […] The inserts were placed in a six‐well plate containing 1.5 mL culture medium and the skin explants incubated in a standard incubator at 37°C, under an atmosphere of 5% CO2 and 50 ± 10% relative humidity. The culture medium was Dulbecco's modified Eagle medium without phenol red supplemented with 8 mM L‐glutamine, 2 μg/mL streptomycin/penicillin, 25 ng/mL fungizone and 50 ng/mL gentamycin. Skin explants were incubated for 1 hour before application of the formulation.
(§3) The dosing volume was 10 μL/cm^2. For pig skin metabolism studies, which were carried out before the human skin experiments to ensure the analytics were optimal, 2.4 nmol/cm^2 of each chemical (only the ^14C‐labeled form) was applied on the skin and incubated for 24 hours for the measurement of metabolites in the medium. These tissues were further incubated for a total of 48 hours, with a replacement of the culture medium after 24 hours. This longer incubation time and the standard doses of 2.4 nmol/cm^2 were used to maximize the likelihood of the skin forming metabolites to develop analytical methods. The metabolites profiles in pig and human skin were compared in the medium sample at 24 hours of incubation. The metabolite profiles for the 48‐hour timepoint are not reported here since humans skin metabolism was measured at 24 hours only; however, for completeness, the distribution of radioactivity at the end of both pig (48 hours) and human (24 hours) skin incubations is reported. […] The doses were obtained by mixing radiolabeled and cold chemical. One replicate disc per donor and per dose was used. All chemicals were tested on four donors of pig and human skin, except for 2‐AAF and 4‐amino‐3‐nitrophenol (4‐A‐3‐NP), for which three donors were used. The medium was removed after 24 hours of incubation and stored at −20°C for analysis.
(§4) At the end of the experiment, the trans‐wells were dismantled and washed with appropriate solvent for each chemical. […] The cotton swabs were placed in 5 mL of appropriate solvent in a scintillation counting flask and placed in a sonicator bath for 20 minutes. Aliquots of 1 mL were counted by liquid scintillation, after addition of 15 mL of scintillation liquid. Tissue culture inserts were washed with 10 mL of appropriate solvent. One aliquot of 1 mL was counted by liquid scintillation, after addition of 15 mL of scintillation liquid. After media removal, wells were washed twice with 1 mL of the appropriate solvent. Washing solutions were counted by liquid scintillation, after addition of 15 mL of scintillation liquid.
(§5) Pig skin explants were digested using 3 mL Soluable (60°C for 24 hours) and counted by liquid scintillation. Skin extraction process was adapted according to the physicochemical properties of each chemical and its potential metabolites.

The subject of series [2] is human abdominal skin explants. Put plainly: Cutaneous distribution and mass balance of radioactivity in human skin explants. Conditions: human skin; for % Radioactivity in culture media after 24 h / Mass balance (% of applied dose at end of incubation): 24 h; for Medium radioactivity / Skin radioactivity / Skin surface radioactivity: end of incubation (24 h), mean ± SD. On the procedure:
as §1, §2, §3, §4, §5

The subject of series [3] is human abdominal skin explants. On the procedure:
as §1, §2, §3
(§6) After centrifugation, a 100 μL aliquot of the extract was counted by liquid scintillation. The pellet was dissolved in 3 mL Soluable (60°C, 24 hours) and then counted by liquid scintillation.
(§7) Analysis of the chemicals and their metabolites in medium after 24 hours of incubation with pig and human skin was measured by radio‐high‐performance liquid chromatography (HPLC) using an HPLC 1100 Series, Agilent and a Flow Scintillation Analyzer, Radiomatic 610 TR, Perkin Elmer (Villebon‐sur‐Yvette, France). […] To confirm that metabolites were the same in pig and human skin, medium samples were co‐injected on the new column. The metabolites were identified by LC‐electrospray ionization‐HRMS (HPLC‐ESI‐HRMS) with a RSLC3000 HPLC system coupled to a LTQ‐Orbitrap XL mass spectrometer (Thermo Scientific). The HPLC analytical conditions for identification and quantification of the metabolites for each chemical are summarized in Supporting information Table S1.

The subject of series [4] is pig ear skin explants. On the procedure: as §1, §2, §3, §6, §7
Series [5] has as its system N‐acetyltransferase (NAT)1 enzyme. On the set-up: method as in unpublished data. As to conditions: ref unpublished data; cited from earlier work.
For series [6] the following is noted: ref Chemspider (www.chemspider.com), cited from earlier work.
Series [7] relates to skin explants. Kind of series: Skin explant assay, radioactivity in culture medium bound to proteins. Type of series: in vitro ADME. Conditions: medium with 4% BSA; species not stated.

As usually defined, the LogP is the decadic logarithm of the partition coefficient of the neutral form, usually between octanol and water. Consider `Nc1ccc(O)cc1[N+](=O)[O-]` [4‐A‐3‐NP, 4‐amino‐3‐nitrophenol], for which, in series [1], the “% Radioactivity in culture media after 24 h” value (from here on “% Radioactivity”) is given as 51.9 ± 6.7%, the “Mass balance (% of applied dose at end of incubation)” value is 96.0 ± 2.6 % of applied dose, the Medium radioactivity was 69.9 ± 5.8 % of the applied dose and the Skin radioactivity was 15.6 ± 5.3 % of the applied dose. The Skin surface radioactivity in series [1] is recorded as 10.5 ± 5.1 % of the applied dose. Moreover, in series [2], the “% Radioactivity” value amounted to 62.3 ± 3.4%, the “Mass balance (% of applied dose at end of incubation)” value is 94.4 ± 3.0 % of applied dose, the Medium radioactivity is 62.3 ± 3.4 % of the applied dose and the Skin radioactivity is reported as 28.6 ± 4.5 % of the applied dose. Besides, the Skin surface radioactivity in series [2] was 3.6 ± 2.1 % of the applied dose. For the same compound, the “N‐acetylated metabolite” value in series [3] (human skin incubations) was “not detected”. For the same compound, the “Parent compound in the medium after 24 h” value in series [3] (human skin, 24 h, mean ± SEM) is given as 0.1 ± 0.06 % Applied dose. Besides, the “N‐acetylated metabolite” value in series [4] (pig skin incubations) was “not detected”. Further, the “Parent compound in the medium after 24 h” value in series [4] (pig skin, 24 h, mean ± SEM) is 0.6 ± 0.2 % Applied dose. The “Substrate for NAT1” value in series [5] is reported as “not a substrate”. Further, in series [6], the LogP is recorded as 0.41 and the Maximum water solubility is 2000 µg/mL.

As to `Nc1ccc(Cl)cc1` [4‐Chloroaniline], the “% Radioactivity” value is 54.3 ± 0.6% in series [1] and 49.7 ± 4.4% in series [2]. Further, the “Mass balance (% of applied dose at end of incubation)” value in series [1] is 99.2 ± 10.8 % of applied dose; in series [2] it was 86.2 ± 0.7 % of applied dose. In addition, the Skin surface radioactivity in series [1] is reported as 0.7 ± 0.2 % of the applied dose; in series [2] it was 2.2 ± 0.5 % of the applied dose. Also, the Medium radioactivity in series [1] (listed as 4-Chloroaniline) was 82.1 ± 8.8 % of the applied dose; in series [1] (listed as 4‐chloroaniline) it was 82 % of the applied dose; in series [2] (listed as 4-Chloroaniline), 49.7 ± 4.4 % of the applied dose; in series [2] (listed as 4‐chloroaniline), 50 % of the applied dose. The Skin radioactivity in series [1] (listed as 4-Chloroaniline) is 16.3 ± 2.3 % of the applied dose; in series [1] (listed as 4‐chloroaniline) it was 16 % of the applied dose; in series [2] (listed as 4-Chloroaniline), 34.4 ± 3.8 % of the applied dose; in series [2] (listed as 4‐chloroaniline) it was 35 % of the applied dose. In addition, the “Metabolites detected in the skin or culture media” value in series [3] (human skin) and in series [4] (pig skin) was “no metabolites were detected” throughout. The “Radioactivity detected in the culture medium bound to proteins” value in series [7] is on record as ~ 20%. The Maximum water solubility in series [6] is 3200 µg/mL.
